In PMC4958397, “Synthesis, antibacterial and antiproliferative potential of some new 1-pyridinecarbonyl-4-substituted thiosemicarbazide derivatives” (Medicinal Chemistry Research, 2016):
In brackets after ≈: the same amount, converted by molar mass.

Columns and labels:
Lactobacillus spp. = assay: Disk diffusion, zone of bacterial growth inhibition; format: cell-based; details: 100 μg of compound; for zone of inhibition at 100 µg/disc: Lactobacillus, read-out: Zone of bacterial growth inhibition, L.spp.
From the text: (§1) Panel reference strains of bacteria from the American Type Culture Collection or Polish Collection of Microorganisms, including aerobic Gram-positive bacteria: Staphylococcus aureus ATCC 25923 and Staphylococcus epidermidis ATCC 12228, and aerobic Gram-negative bacteria: Escherichia coli ATCC 25922 and Pseudomonas aeruginosa ATCC 9027, as well as microaerobic Gram-positive bacteria: Lactobacillus spp., Lactobacillus acidophilus PCM 2105, Streptococcus mutans PCM 2502 and Streptococcus sanguinis PCM 2335, were used. Microbial suspensions with an optical density of 0.5 McFarland standard at 1.5 × 10^8 CFU/mL (CFU: colony forming unit) were prepared in sterile 0.9 % NaCl. Mueller–Hinton (M–H) broth and M–H agar (Oxoid Ltd., England) for aerobic strains, and MRS Broth Lactobacillus, MRS Agar Lactobacillus (BioMaxima S.A., Poland), BHI Broth and BHI agar (BioMaxima S.A., Poland) for microaerobic strains were used in the microbial tests.
(§2) The preliminary antibacterial activity of the carbazide derivatives against human pathogenic Gram-positive, Gram-negative aerobic and microaerobic bacteria was evaluated by measuring the zones of inhibition in the disk diffusion method (Murray et al., [1995]). Each compound (100 µg) was placed on Petri plates with agar medium (previously inoculated with 0.5 McFarland standards with the tested bacterial strains). After 18 h of incubation at 37 °C (for aerobic strains) or 40 h at 35 °C (for microaerobic strains), zones of microbial growth produced around the tested substances were measured and recorded as the diameters of inhibition.

[1] = tested on: Escherichia coli ATCC 25922; assay: as above; format: cell-based; details: for zone of inhibition at 100 µg/disc: Escherichia coli, ATCC25922, 100 μg of compound, read-out: Zone of bacterial growth inhibition, E.c
From the text: as §1, §2

[2] = tested on: Pseudomonas aeruginosa ATCC 9027; assay: as above; format: cell-based; details: for zone of inhibition at 100 µg/disc: Pseudomonas aeruginosa, ATCC9027, 100 μg of compound, read-out: Zone of bacterial growth inhibition, P.a
From the text: as §1, §2

[3] = tested on: Staphylococcus epidermidis ATCC 12228; assay: as above; format: cell-based; details: for zone of inhibition at 100 µg/disc: Staphylococcus epidermidis, ATCC12228, 100 μg of compound, read-out: Zone of bacterial growth inhibition, S.e
From the text: as §1, §2

[4] = tested on: Staphylococcus aureus ATCC 25923; assay: as above; format: cell-based; details: for zone of inhibition at 100 µg/disc: Staphylococcus aureus, ATCC25923, 100 μg of compound, read-out: Zone of bacterial growth inhibition, S.a
From the text: as §1, §2

[5] = tested on: Streptococcus sanguinis PCM 2335; assay: as above; format: cell-based; details: for zone of inhibition at 100 µg/disc: Streptococcus sanguinis, PCM2335, 100 μg of compound, read-out: Zone of bacterial growth inhibition, S.s
From the text: as §1, §2

[6] = tested on: Lactobacillus acidophilus PCM 210; assay: as above; format: cell-based; details: for zone of inhibition at 100 µg/disc: Lactobacillus acidophilus, PCM210, 100 μg of compound, read-out: Zone of bacterial growth inhibition, L.a
From the text: as §1, §2

[7] = tested on: Streptococcus mutans PCM 2502; assay: as above; format: cell-based; details: for zone of inhibition at 100 µg/disc: Streptococcus mutans, PCM2502, 100 μg of compound, read-out: Zone of bacterial growth inhibition, S.m
From the text: as §1, §2

[8] = tested on: Lactobacillus acidophilus PCM 210; assay: Broth microdilution MIC; format: cell-based; details: for MIC: Lactobacillus acidophilus, PCM210, NA means inactive, read-out: Minimum inhibitory concentration (MIC), L. acidophilus
[9] = tested on: Escherichia coli ATCC 25922; assay: Broth microdilution MIC; format: cell-based; details: NA means inactive; for Minimum inhibitory concentration (MIC), E. coli: broth microdilution; for MIC: Escherichia coli, ATCC25922, broth microdilution, read-out: Minimum inhibitory concentration (MIC), E. coli
From the text: as §1
(§3) A broth microdilution method was used to evaluate the minimum inhibition concentration (MIC) according to the CLSI document (CLSI performance standards for antimicrobial susceptibility testing, 2008, Eighteenth International Supplement, CLSI document M7-MIC, Clinical Laboratory Standards Institute, Wayne) with some modifications. […] A serial doubling dilution of the compounds was prepared in 96-well plates (200 μL per well). A suitable medium (M-H Broth, MRS Broth Lactobacillus, BHI Broth) was used as a diluent. The final concentrations of derivatives were 1000–0.015 μg/mL. Finally, 2 μL of inoculum of the tested bacterial strain (1.5 × 10^8 CFU/mL) was added to each well. The tests were performed either at 36 °C for 18 h (aerobic strains) or at 40 h (microaerobic strains). After incubation, the panel was digitally analyzed at 600 nm using the microplate reader Bio Tech Synergy (USA) with a dedicated software system. The growth intensity in each well was compared with the negative and positive controls.

[10] = tested on: Pseudomonas aeruginosa ATCC 9027; assay: Broth microdilution MIC; format: cell-based; details: for MIC: Pseudomonas aeruginosa, ATCC9027, NA means inactive, read-out: Minimum inhibitory concentration (MIC), P. aeruginosa
From the text: as §1, §3

[11] = tested on: Staphylococcus epidermidis ATCC 12228; assay: Broth microdilution MIC; format: cell-based; details: for MIC: Staphylococcus epidermidis, ATCC12228, NA means inactive, read-out: Minimum inhibitory concentration (MIC), S. epidermidis
From the text: as §1, §3

[12] = tested on: Staphylococcus aureus ATCC 25923; assay: Broth microdilution MIC; format: cell-based; details: for MIC: Staphylococcus aureus, ATCC25923, NA means inactive, read-out: Minimum inhibitory concentration (MIC), S. aureus
From the text: as §1, §3

[13] = tested on: Streptococcus sanguinis PCM 2335; assay: Broth microdilution MIC; format: cell-based; details: for MIC: Streptococcus sanguinis, PCM2335, NA means inactive, read-out: Minimum inhibitory concentration (MIC), S. sanguinis
From the text: as §1, §3

[14] = tested on: Streptococcus mutans PCM 2502; assay: Broth microdilution MIC; format: cell-based; details: for MIC: Streptococcus mutans, PCM2502, NA means inactive, read-out: Minimum inhibitory concentration (MIC), S. mutans
From the text: as §1, §3

tested bacterial strains = assay: Disk diffusion, summary over all tested strains; format: cell-based; details: 100 μg; range over strains
From the text: as §1, with “Mueller–Hinton (M–H) broth and M–H agar (Oxoid Ltd., England) for aerobic strains, and MRS Broth Lactobacillus, MRS Agar Lactobacillus (BioMaxima S.A., Poland), BHI Broth and BHI agar (BioMaxima S.A., Poland) for microaerobic strains were used in the microbial tests.” left out
as §2, with “Each compound (100 µg) was placed on Petri plates with agar medium (previously inoculated with 0.5 McFarland standards with the tested bacterial strains).” left out

[15] = tested on: aerobic Gram-positive bacteria; assay: Broth microdilution MIC, summary in text; format: cell-based; details: range over compounds and strains; read-out: MIC against aerobic Gram-positive bacteria
From the text: as §1, §3

[16] = tested on: pathogenic microaerobic bacteria (causing dental caries); assay: Broth microdilution MIC, summary in text; format: cell-based; details: range over compounds and strains; read-out: MIC against pathogenic microaerobic bacteria
From the text: as §1, §3

| Structure (SMILES) | zone of inhibition at 100 µg/disc (Lactobacillus spp.) [mm] | zone of inhibition at 100 µg/disc [1] [mm] | zone of inhibition at 100 µg/disc [2] [mm] | zone of inhibition at 100 µg/disc [3] [mm] | zone of inhibition at 100 µg/disc [4] [mm] | zone of inhibition at 100 µg/disc [5] [mm] | zone of inhibition at 100 µg/disc [6] [mm] | zone of inhibition at 100 µg/disc [7] [mm] | MIC [8] [µg/mL] | MIC [10] [µg/mL] | MIC [11] [µg/mL] | MIC [12] [µg/mL] | MIC [13] [µg/mL] | MIC [14] [µg/mL] | melting point [°C] | MIC [15] [µg/mL] | further results |
| --- | --- | --- | --- | --- | --- | --- | --- | --- | --- | --- | --- | --- | --- | --- | --- | --- | --- |
| CO/N=C(\C(=O)N[C@@H]1C(=O)N2C(C(=O)O)=C(C[N+]3(C)CCCC3)CS[C@H]12)c1csc(N)n1.Cl.[Cl-] [Cefepime, cefepime dihydrochloride, reference compound] |  |  |  |  |  |  |  |  |  |  |  |  |  |  |  |  | Zone of bacterial growth inhibition, L.spp. (Lactobacillus spp.): 29 mm; Zone of bacterial growth inhibition, E.c ([1]; 100 μg of compound): 35 mm; Zone of bacterial growth inhibition, P.a ([2]; 100 μg of compound): 29 mm; Zone of bacterial growth inhibition, S.e ([3]; 100 μg of compound): 36 mm; Zone of bacterial growth inhibition, S.a ([4]; 100 μg of compound): 38 mm; Zone of bacterial growth inhibition, S.s ([5]; 100 μg of compound): 29 mm; Zone of bacterial growth inhibition, L.a ([6]; 100 μg of compound): 31 mm; Zone of bacterial growth inhibition, S.m ([7]; 100 μg of compound): 32 mm; Minimum inhibitory concentration (MIC), L. acidophilus ([8]; NA means inactive): 3.9 µg/mL; Minimum inhibitory concentration (MIC), E. coli [9]: 0.015 µg/mL; Minimum inhibitory concentration (MIC), P. aeruginosa ([10]; NA means inactive): 0.488 µg/mL; Minimum inhibitory concentration (MIC), S. epidermidis ([11]; NA means inactive): 0.976 µg/mL; Minimum inhibitory concentration (MIC), S. aureus ([12]; NA means inactive): 0.976 µg/mL; Minimum inhibitory concentration (MIC), S. sanguinis ([13]; NA means inactive): 0.122 µg/mL; Minimum inhibitory concentration (MIC), S. mutans ([14]; NA means inactive): 0.122 µg/mL; zones of inhibition, all tested strains (tested bacterial strains): 29–38 mm |
| O=C(NNC(=S)Nc1ccccc1F)c1ccccn1 [Compound 1, 4-(2-Fluorophenyl)-1-(pyridin-2-yl)carbonylthiosemicarbazide] | 24 | 22 | 12 | 26 | 18 | 10 | 12 | 10 | 125 (≈ 431 µM) | 500 | 15.6 | 31.2 | 500 | 250 | 182 to 184 | 15.6 to 500 | MIC [9]: 62 to 125 µg/mL; Minimum inhibitory concentration (MIC), E. coli [9]: 62.5 µg/mL; MIC [16]: 7.81 to 500 µg/mL |
| O=C(NNC(=S)NCCN1CCOCC1)c1ccccn1 [Compound 3, 4-(2-Morpholinoethyl)-1-(pyridin-2-yl)carbonylthiosemicarbazide] | 0 | 0 | 0 | 7 | 0 | 0 | 0 | 0 |  |  |  |  |  |  | 196 to 198 |  |  |
| CSc1ccc(NC(=S)NNC(=O)c2ccccn2)cc1 [Compound 5, 4-(4-Methylthiophenyl)-1-(pyridin-2-yl)carbonylthiosemicarbazide] | 11 | 11 | 0 | 10 | 10 | 15 | 19 | 0 | 500 (≈ 1570 µM) | > 1000 | 125 | 250 | 31.2 | 31.2 | 184 to 186 | 15.6 to 500 | MIC [16]: 7.81 to 500 µg/mL |
| CSc1ccc(NC(=S)NNC(=O)c2ccncc2)cc1 [Compound 8, 4-(4-Methylthiophenyl)-1-(pyridin-4-yl)carbonylthiosemicarbazide] | 0 | 0 | 0 | 0 | 0 | 0 | 0 | 0 |  |  |  |  |  |  | 197 to 198 |  |  |
| O=C(NNC(=S)Nc1ccccc1F)c1ccncc1 [Compound 9, 4-(2-Fluorophenyl)-1-(pyridin-4-yl)carbonylthiosemicarbazide] | 0 | 0 | 0 | 0 | 0 | 0 | 0 | 0 |  |  |  |  |  |  | 202 to 204 |  |  |
| O=C(NNC(=S)Nc1ccc(Cl)cc1Cl)c1ccncc1 [Compound 10, 4-(2,4-Dichlorophenyl)-1-(pyridin-4-yl)carbonylthiosemicarbazide] | 0 | 7 | 0 | 13 | 16 | 20 | 0 | 28 | 1000 (≈ 2930 µM) | 1000 | 250 | 125 | 1000 | 250 |  | 15.6 to 500 | MIC [9]: 1000 µg/mL |
